Assay results as given in the NIST ThermoML archive (doi:10.1016/j.fluid.2013.06.041).

Test: xn = mol fraction of the nth substance listed
Conditions: 101 kPa, Liquid, Small sample (50 mg) DSC

OCCCO [propan-1,3-diol] + O
excess molar heat capacity [J/K/mol]
Conditions	283.15 K	293.15 K	298.15 K	303.15 K	313.15 K
x1 = 0.02483	1.28	1.4	1.43	1.44	1.46
x1 = 0.03693	1.89	2.08	2.13	2.16	2.26
x1 = 0.05016	2.35	2.72	2.83	2.9	2.99
x1 = 0.07515	2.54	3.22	3.44	3.59	3.8
x1 = 0.1401	2.24	3.61	4.11	4.52	5.08
x1 = 0.1504	2.2	3.67	4.21	4.64	5.27
x1 = 0.299	1.59	3.18	3.84	4.43	5.44
x1 = 0.3982	1.31	2.66	3.28	3.85	4.81
x1 = 0.4976	1.26	2.34	2.82	3.25	4.02
x1 = 0.5955	1.15	1.92	2.33	2.74	3.48
x1 = 0.7025	–	1.71	1.95	2.2	2.64
x1 = 0.7902	0.98	1.19	1.3	1.4	1.49
x1 = 0.9455	0.48	0.53	0.58	0.61	0.55

OCCCCO [1,4-butanediol] + O
excess molar heat capacity [J/K/mol]
Conditions	283.15 K	293.15 K	298.15 K	303.15 K	313.15 K
x1 = 0.00538	1.24	1.14	1.06	1.01	1.1
x1 = 0.01312	2.19	2.16	2.08	2.01	1.92
x1 = 0.02505	3.41	3.49	3.5	3.52	3.58
x1 = 0.02518	3.17	3.34	3.32	3.28	3.33
x1 = 0.03528	4.45	4.6	4.58	4.53	4.52
x1 = 0.04842	5.39	5.61	5.64	5.65	5.67
x1 = 0.0574	6.22	6.53	6.59	6.62	6.68
x1 = 0.07589	6.43	7.15	7.34	7.46	7.6
x1 = 0.08236	6.7	7.51	7.71	7.85	8.09
x1 = 0.09032	6.66	7.65	7.89	8.04	8.25
x1 = 0.1005	6.94	8.03	8.38	8.63	8.9
x1 = 0.1396	6.87	8.33	8.81	9.17	9.74
x1 = 0.1403	6.85	8.37	8.87	9.24	9.77
x1 = 0.1868	6.33	8.24	9.84	10.39	11.21
x1 = 0.2961	5.63	7.75	8.91	9.42	10.66
x1 = 0.3972	4.75	6.83	7.7	–	10.31
x1 = 0.4965	4.04	5.92	6.8	7.63	9.13
x1 = 0.5659	3.29	5.08	5.88	6.64	8.11
x1 = 0.7004	2.95	4.32	4.96	5.57	6.8
x1 = 0.7964	2.92	3.47	3.89	4.33	5.14
x1 = 0.8873	1.38	2.21	2.5	2.79	3.63
x1 = 0.9398	0.81	1.14	1.34	1.56	2.03

CC(O)CO (centres undefined) [1,2-propanediol] + O
excess molar heat capacity [J/K/mol]
Conditions	283.15 K	293.15 K	298.15 K	303.15 K	313.15 K
x1 = 0.02216	1.78	2.01	1.98	1.95	1.84
x1 = 0.05617	3.3	3.57	3.62	3.63	3.59
x1 = 0.07845	4.67	5.18	5.29	5.35	5.39
x1 = 0.1224	5.38	6.18	6.43	6.6	6.81
x1 = 0.1545	5.22	6.19	6.5	6.73	6.96
x1 = 0.1667	4.94	6.02	6.37	6.62	6.95
x1 = 0.1873	4.62	5.79	6.18	6.49	6.9
x1 = 0.2272	4.15	5.41	5.86	6.21	6.72
x1 = 0.2878	2.67	4.01	4.52	4.94	5.62
x1 = 0.3965	1.6	3.11	3.65	4.08	4.77
x1 = 0.4863	0.67	1.88	2.34	2.75	3.53
x1 = 0.5274	0.69	1.74	2.17	2.58	3.35
x1 = 0.6388	0.77	1.63	1.97	2.3	3.01
x1 = 0.753	0.72	1.32	1.55	1.76	2.18
x1 = 0.7757	0.8	1.04	1.24	1.47	1.96
x1 = 0.9045	0.26	0.38	0.11	0.14	0.32
x1 = 0.9677	0.09	–	–	–	–
